# Earlier results in US20090208944A1 (priority 2005, published 2009).
# Target: CYP2D6 enzyme system (Homo sapiens, UniProt P10635)
# Conditions: classification from literature
# Sequence of CYP2D6 enzyme system (P10635 whole entry): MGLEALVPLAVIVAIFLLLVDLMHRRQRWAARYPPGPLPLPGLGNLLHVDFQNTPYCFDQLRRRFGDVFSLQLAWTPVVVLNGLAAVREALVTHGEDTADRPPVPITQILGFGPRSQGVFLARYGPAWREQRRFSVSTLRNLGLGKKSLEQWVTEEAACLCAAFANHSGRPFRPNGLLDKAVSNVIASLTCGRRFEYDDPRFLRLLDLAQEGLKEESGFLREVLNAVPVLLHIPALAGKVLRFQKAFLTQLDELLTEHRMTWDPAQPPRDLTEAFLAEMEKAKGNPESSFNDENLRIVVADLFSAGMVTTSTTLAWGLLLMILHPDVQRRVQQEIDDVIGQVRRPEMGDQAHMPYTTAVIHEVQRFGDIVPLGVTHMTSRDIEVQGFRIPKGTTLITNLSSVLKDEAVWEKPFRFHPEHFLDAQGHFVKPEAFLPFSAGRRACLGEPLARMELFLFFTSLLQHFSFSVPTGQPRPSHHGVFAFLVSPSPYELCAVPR
row,SMILES,potency as inhibitor of the CYP2D6 enzyme system
1,CN[C@H]1CC[C@@H](c2ccc(Cl)c(Cl)c2)c2ccccc21 [sertraline],Moderate
2,CN/C(=N/CCSCc1nc[nH]c1C)NC#N [cimetidine],Moderate
3,CN(C)CCC=C1c2ccccc2COc2ccccc21 [doxepin],Moderate

# Now from value to compound:
row,potency as inhibitor of the CYP2D6 enzyme system,SMILES
1,Moderate,O=C(CCCN1CCC(O)(c2ccc(Cl)cc2)CC1)c1ccc(F)cc1 [haloperidol]
2,Potent,Fc1ccc([C@@H]2CCNC[C@H]2COc2ccc3c(c2)OCO3)cc1 [paroxetine]
